Results on 6 compounds are retold here after patent US20060110594A1, “Polymer-coated substrates for binding biomolecules and methods of making and using thereof” (priority 2004, published 2006).

Values joined by “and” are separate entries in the source; they are usually repeats but may differ in a detail not shown here. Equal entries are not always repeated. Where two headings read alike, the source gives them in different places.

One data set concerns the target streptavidin (Streptomyces avidinii, UniProt P22629). The data set is described as follows: Small molecule binding to streptavidin immobilized on EMA, Corning LID. The following applies: for signal-to-noise ratio: binding to streptavidin immobilized on EMA. On the procedure:
Streptavidin was immobilized on an EMA coated LID microplate by incubating the wells with a solution of 25 ug/mL of the protein in an acetate buffer (20 mM, pH 5.5) for 15 minutes. As negative controls, additional wells were blocked with ethanolamine. The binding of the small molecule fluorescein-biotin (“Fl-biotin”, 831 Da) was monitored as a function of time in the LID instrument. A 100 nM solution of Fl-biotin in PBS was introduced into each well and allowed to bind for several minutes. […] The data have been corrected for bulk index of refraction effects by subtracting out the response from the negative control well. […] This experiment was repeated in each column of the plate with similar results.

The conditions of data set [1]: isoelectric point, listed property; cited from earlier work.
The nature of data set [2]: Streptavidin binding to immobilized biotin on EMA coated microplate, Corning LID. Conditions: streptavidin 100 nM in PBS, six wells. On the procedure: The performance of EMA in a small molecule/protein binding assay was tested using a biotin/streptavidin model system and Corning LID detection. Biotin was immobilized in rows A-G of a Corning LID microplate by incubating each well with 75 uL of a 10 uM solution of biotin-peo-amine in borate buffer (150 mM, pH 9) for 30 minutes; row H was reacted with ethanolamine (200 mM in borate buffer, pH 9) to serve as a negative control. The plate was docked in the LID instrument and the binding of streptavidin (100 nM in phosphate buffered saline (PBS)) was monitored as a function of time as shown in FIG. 4A.

Data set [3] in a line: Streptavidin/BSA binding to biotin immobilized on MAMVE and SMA, Biacore SPR. Conditions: streptavidin 1 μM; biotin-groups immobilized on MAMVE; BSA as control. The source says: Biacore SPR detection was used for these experiments in which biotin was immobilized on the surfaces by injecting solutions of 5-(biotinamido)pentylamine over each surface. […] Non-specific binding of proteins to surfaces such as those presenting hydrophobic aromatic groups is well documented; the inertness of surfaces presenting —OCH3 groups to non-specific adsorption has also been observed (13).
Background: In SPR one partner is held on a chip, and binding of the other changes the refractive index at the surface.

Data set [4] concerns the target Lys-D-Ala-D-Ala. The following applies: measured in solution (ref 12); read-out: Kd reported in the literature; cited from earlier work.
Data set [5] relates to Lys-D-Ala-D-Ala. The experiment in a line: Vancomycin binding to immobilized Lys-D-Ala-D-Ala, SPR (Biacore 2000). Conditions: for Total Signal: 5 μM vancomycin; for Nonspecific Binding: 5 uM vancomycin + 500 μM DADA; for Kd: Scatchard analysis, vancomycin 10, 5, 2.5, 1.25 μM. The protocol: (Vancomycin is an antibiotic that binds to the C-terminal D-Ala-D-Ala group of Gram-positive bacterial cell wall precursors and inhibits cell wall synthesis.) Experiments were performed on the Biacore 2000 SPR instrument using gold sensor chips modified with either EMA or poly(triethylene glycol-co-maleic anhydride) (“PEG-MA”); for comparison, experiments were also performed on Biacore's CM5 surface.

For data set [6], the system named is Lys-D-Ala-D-Ala. The experiment in a line: Vancomycin competitive inhibition binding assay, SPR. The protocol: (§1) To test the specificity of the interaction, a competitive binding assay was performed in which the surface was incubated with a fixed (5 μM) concentration of vancomycin in the presence of varying concentrations of the peptide Lys-D-Ala-D-Ala. […] Similar competitive inhibition experiments were performed on a Corning LID microplate coated with EMA (see FIG. 7).

Data set [7] relates to Lys-D-Ala-D-Ala. The experiment in a line: Vancomycin competitive inhibition on EMA coated microplate, Corning LID. The following applies: in the presence of excess (250 uM) Lys-D-Ala-D-Ala. The class given is binding. The protocol:
as §1

The next data set has as its target human serum albumin (Homo sapiens, UniProt P02768). The experiment in a line: Drug binding to human serum albumin immobilized on EMA, Corning LID.

streptavidin, sequence (P22629 25-183, species assumed): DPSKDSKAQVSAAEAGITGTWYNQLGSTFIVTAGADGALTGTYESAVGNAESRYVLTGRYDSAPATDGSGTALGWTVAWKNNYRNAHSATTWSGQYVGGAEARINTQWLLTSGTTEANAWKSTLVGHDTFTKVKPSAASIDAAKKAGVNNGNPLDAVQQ
human serum albumin, sequence (P02768 25-609): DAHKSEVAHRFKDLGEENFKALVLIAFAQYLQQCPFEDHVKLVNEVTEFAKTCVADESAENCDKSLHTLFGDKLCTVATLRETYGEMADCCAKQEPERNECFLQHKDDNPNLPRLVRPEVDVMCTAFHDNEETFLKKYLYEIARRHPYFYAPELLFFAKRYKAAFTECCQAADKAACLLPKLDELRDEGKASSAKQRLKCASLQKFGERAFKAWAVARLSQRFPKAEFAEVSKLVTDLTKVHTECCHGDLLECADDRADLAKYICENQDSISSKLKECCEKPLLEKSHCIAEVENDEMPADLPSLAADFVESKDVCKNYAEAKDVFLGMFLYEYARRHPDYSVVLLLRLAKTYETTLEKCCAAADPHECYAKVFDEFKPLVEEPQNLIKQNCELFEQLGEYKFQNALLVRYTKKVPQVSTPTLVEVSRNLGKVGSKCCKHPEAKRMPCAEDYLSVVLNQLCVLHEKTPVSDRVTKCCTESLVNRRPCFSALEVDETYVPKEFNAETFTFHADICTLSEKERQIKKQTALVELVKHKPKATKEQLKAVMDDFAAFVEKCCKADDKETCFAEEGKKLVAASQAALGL
Experimental for human serum albumin: HSA was immobilized on the sensor surface by incubating the wells with a solution of 60 ug/mL of the protein in an acetate buffer (20 mM, pH 5.5) for 15 minutes. As negative controls, additional wells were blocked with ethanolamine. After thorough washing with PBS buffer and water, residual reactive groups were blocked by incubating the wells for 10 minutes with ethanolamine (200 mM, pH 9.2).

As for `O=C(CCCCCNC(=O)CCCC[C@@H]1SC[C@@H]2NC(=O)N[C@@H]21)NCCCCCNC(=S)Nc1ccc2c(c1)C(=O)OC21c2ccc(O)cc2Oc2cc(O)ccc21` [fluorescein-biotin], at streptavidin, the signal-to-noise ratio was greater than 200.
For the compound “Lysozyme: protein immobilized on EMA, 14 kDa”, the pI in data set [1] is 9.5.
Consider “streptavidin: protein binding biotin; 60 kDa”, for which the pI in data set [1] is given as 5. In addition, in data set [2], the average response is given as 465 pm. The specificity of binding result in [3] is recorded as “specific”.
For `CN[C@H](CC(C)C)C(=O)N[C@H]1C(=O)N[C@@H](CC(N)=O)C(=O)N[C@H]2C(=O)N[C@H]3C(=O)N[C@H](C(=O)N[C@H](C(=O)O)c4cc(O)cc(O)c4-c4cc3ccc4O)[C@H](O)c3ccc(c(Cl)c3)Oc3cc2cc(c3O[C@@H]2O[C@H](CO)[C@@H](O)[C@H](O)[C@H]2O[C@H]2C[C@](C)(N)[C@H](O)[C@H](C)O2)Oc2ccc(cc2Cl)[C@H]1O` [vancomycin], the Kd is roughly 1000 nM on Lys-D-Ala-D-Ala [4]; 280 nM and 270 nM at Lys-D-Ala-D-Ala [5] (CM5 surface); 340 nM at Lys-D-Ala-D-Ala [5] (EMA surface); 1300 nM on Lys-D-Ala-D-Ala [5] (PEG-MA surface). The “Total Signal” value is listed as 1251 RU with Lys-D-Ala-D-Ala [5] (CM5 surface), 2538 RU in the data set on Lys-D-Ala-D-Ala [5] (EMA surface) and 2006 RU in the data set on Lys-D-Ala-D-Ala [5] (PEG-MA surface). Further, the “Nonspecific Binding” value is 3 RU with Lys-D-Ala-D-Ala [5] (CM5 surface), 290 RU with Lys-D-Ala-D-Ala [5] (EMA surface) and 128 RU with Lys-D-Ala-D-Ala [5] (PEG-MA surface). Besides, the “amount of nonspecific binding, lower on PEG-MA relative to EMA” value in the data set on Lys-D-Ala-D-Ala [6] (PEG-MA relative to EMA) is reported as roughly 2 ×. For the same compound, the binding specificity in the data set on Lys-D-Ala-D-Ala [6] (both maleic anhydride copolymer surfaces tested (EMA, PEG-MA), 5 μM vancomycin) is greater than 90%. The “reduction of vancomycin binding signal” value in the data set on Lys-D-Ala-D-Ala [7] amounted to 83%.
As to `C[C@H]1O[C@@H](O[C@H]2[C@@H](O)C[C@H](O[C@H]3[C@@H](O)C[C@H](O[C@H]4CC[C@@]5(C)[C@H](CC[C@@H]6[C@@H]5CC[C@]5(C)[C@@H](C7=CC(=O)OC7)CC[C@]65O)C4)O[C@@H]3C)O[C@@H]2C)C[C@H](O)[C@@H]1O` [digitoxin], on human serum albumin, the “lowest concentration successfully detected” value was 6 µM.
With `O=C(O)CCCC[C@@H]1SC[C@@H]2NC(=O)N[C@@H]21` [biotin], on streptavidin (EMA coated LID microplate, Fl-biotin 100 nM in PBS, relative to negative control well), the “response for binding to immobilized streptavidin” value is given as roughly 5 pm. In addition, the signal-to-noise ratio on streptavidin is roughly 50.

A word on the Kd: it is the constant that tells how readily two partners part at equilibrium.
